Values of other authors as cited in patent US20040019053A1, “Combination of an allosteric carboxylic inhibitor of matrix metalloproteinase-13 with celecoxib or valdecoxib” (priority 2002, published 2004).

Q: Which Tolerability (combined analysis of clinical studies) does the source give for `Cc1onc(-c2ccccc2)c1-c1ccc(S(N)(=O)=O)cc1` [valdecoxib, 4-(5-methyl-3-phenyl-4-isoxazolyl)-benzenesulfonamide] here?
A: The Tolerability was “well tolerated”.

Q: And the “Overall upper gastrointestinal safety profile (ulcers, perforations, obstructions and GI bleeds)” value (versus ibuprofen, diclofenac and naproxen)?
A: The value was “significantly better than the conventional NSAIDs studied”.
